Data taken from ChEMBL document CHEMBL3352057, “Novel fluorinated pyrrolo[1,2-a]pyrazine-2,6-dione derivatives: synthesis and anticonvulsant evaluation in animal models of epilepsy” (Bioorg Med Chem, 2014).
Calls of active or inactive are those of the source. The calls are words filed in the database; no cut-off is given here.

tested on: Rattus norvegicus; test: Neurotoxicity in MES Sprague-Dawley rat model at 30 mg/kg, po measured after 1 hr; type: toxicity, organism-based; design: dose 30 mg/kg, route oral; conditions: in vivo

Structure (SMILES) | Activity
O=C1NC(=O)[C@@H](c2cccc(C(F)(F)F)c2)N2CCCC[C@H]12 | Non-toxic

tested on: Mus musculus; test: Neurotoxicity in albino CF1 mouse at 100 mg/kg, ip measured after 1 hr; type: toxicity, organism-based; design: dose 100 mg/kg, route intraperitoneal; conditions: in vivo

Structure (SMILES) | Activity
O=C1NC(=O)[C@@H](c2cccc(C(F)(F)F)c2)N2CCCC[C@H]12 | Non-toxic

tested on: Rattus norvegicus; test: Neurotoxicity in MES Sprague-Dawley rat model at 30 mg/kg, po measured after 4 hrs; type: toxicity, organism-based; design: dose 30 mg/kg, route oral; conditions: in vivo

Structure (SMILES) | Activity
O=C1NC(=O)[C@@H](c2cccc(C(F)(F)F)c2)N2CCCC[C@H]12 | Non-toxic

tested on: Rattus norvegicus; test: Anticonvulsant activity in Sprague-Dawley rat assessed as protection against maximal electroshock-induced seizures at 30 mg/kg, po measured after 2 hrs; type: functional, organism-based; design: dose 30 mg/kg; conditions: not given

Structure (SMILES) | Activity
O=C1NC(=O)[C@@H](c2cccc(C(F)(F)F)c2)N2CCCC[C@H]12 | inactive

tested on: Rattus norvegicus; test: Neurotoxicity in MES Sprague-Dawley rat model at 30 mg/kg, ip measured after 0.5 hr; type: toxicity, organism-based; design: dose 30 mg/kg, route intraperitoneal; conditions: in vivo

Structure (SMILES) | Activity
O=C1NC(=O)[C@@H](c2cccc(C(F)(F)F)c2)N2CCCC[C@H]12 | Non-toxic

tested on: Mus musculus; test: Neurotoxicity in albino CF1 mouse at 100 mg/kg, ip measured after 4 hrs; type: toxicity, organism-based; design: dose 100 mg/kg, route intraperitoneal; conditions: in vivo

Structure (SMILES) | Activity
O=C1NC(=O)[C@@H](c2cccc(C(F)(F)F)c2)N2CCCC[C@H]12 | Non-toxic

tested on: Rattus norvegicus; test: Anticonvulsant activity in Sprague-Dawley rat assessed as protection against maximal electroshock-induced seizures at 30 mg/kg, po measured after 0.25 hr; type: functional, organism-based; design: dose 30 mg/kg; conditions: not given

Structure (SMILES) | Activity
O=C1NC(=O)[C@@H](c2cccc(C(F)(F)F)c2)N2CCCC[C@H]12 | inactive

tested on: Mus musculus; test: Anticonvulsant activity in albino CF1 mouse assessed as protection against subcutaneous metrazol-induced seizures at 100 mg/kg, ip measured after 1 hr; type: functional, organism-based; design: dose 100 mg/kg; conditions: not given

Structure (SMILES) | Activity
O=C1NC(=O)[C@@H](c2cccc(C(F)(F)F)c2)N2CCCC[C@H]12 | inactive

tested on: Mus musculus; test: Neurotoxicity in albino CF1 mouse at 100 mg/kg, ip measured after 0.5 hr; type: toxicity, organism-based; design: dose 100 mg/kg, route intraperitoneal; conditions: in vivo

Structure (SMILES) | Activity
O=C1NC(=O)[C@@H](c2cccc(C(F)(F)F)c2)N2CCCC[C@H]12 | Non-toxic

tested on: Mus musculus; test: Anticonvulsant activity in albino CF1 mouse assessed as protection against 32 mA current-induced seizures at 100 mg/kg, ip measured after 2 hrs; type: functional, organism-based; design: dose 100 mg/kg; conditions: not given

Structure (SMILES) | Activity
O=C1NC(=O)[C@@H](c2cccc(C(F)(F)F)c2)N2CCCC[C@H]12 | inactive

tested on: Rattus norvegicus; test: Neurotoxicity in MES Sprague-Dawley rat model at 30 mg/kg, ip measured after 0.25 hr; type: toxicity, organism-based; design: dose 30 mg/kg, route intraperitoneal; conditions: in vivo

Structure (SMILES) | Activity
O=C1NC(=O)[C@@H](c2cccc(C(F)(F)F)c2)N2CCCC[C@H]12 | Non-toxic

tested on: Mus musculus; test: Anticonvulsant activity in albino CF1 mouse assessed as protection against 32 mA current-induced seizures at 100 mg/kg, ip measured after 4 hrs; type: functional, organism-based; design: dose 100 mg/kg; conditions: not given

Structure (SMILES) | Activity
O=C1NC(=O)[C@@H](c2cccc(C(F)(F)F)c2)N2CCCC[C@H]12 | inactive

tested on: Rattus norvegicus; test: Anticonvulsant activity in Sprague-Dawley rat assessed as protection against maximal electroshock-induced seizures at 30 mg/kg, ip measured after 0.5 hr; type: functional, organism-based; design: dose 30 mg/kg; conditions: not given

Structure (SMILES) | Activity
O=C1NC(=O)[C@@H](c2cccc(C(F)(F)F)c2)N2CCCC[C@H]12 | inactive

tested on: Mus musculus; test: Anticonvulsant activity in albino CF1 mouse assessed as protection against maximal electroshock-induced seizures at 100 mg/kg, ip measured after 0.5 hr; type: functional, organism-based; design: dose 100 mg/kg; conditions: not given

Structure (SMILES) | Activity
O=C1NC(=O)[C@@H](c2cccc(C(F)(F)F)c2)N2CCCC[C@H]12 | inactive

tested on: Rattus norvegicus; test: Anticonvulsant activity in Sprague-Dawley rat assessed as protection against maximal electroshock-induced seizures at 30 mg/kg, ip measured after 4 hrs; type: functional, organism-based; design: dose 30 mg/kg; conditions: not given

Structure (SMILES) | Activity
O=C1NC(=O)[C@@H](c2cccc(C(F)(F)F)c2)N2CCCC[C@H]12 | inactive

tested on: Mus musculus; test: Anticonvulsant activity in albino CF1 mouse assessed as protection against subcutaneous metrazol-induced seizures at 100 mg/kg, ip measured after 0.5 hr; type: functional, organism-based; design: dose 100 mg/kg; conditions: not given

Structure (SMILES) | Activity
O=C1NC(=O)[C@@H](c2cccc(C(F)(F)F)c2)N2CCCC[C@H]12 | inactive

tested on: Mus musculus; test: Anticonvulsant activity in albino CF1 mouse assessed as protection against 32 mA current-induced seizures at 100 mg/kg, ip measured after 0.5 hr; type: functional, organism-based; design: dose 100 mg/kg; conditions: not given

Structure (SMILES) | Activity
O=C1NC(=O)[C@@H](c2cccc(C(F)(F)F)c2)N2CCCC[C@H]12 | Active

tested on: Mus musculus; test: Anticonvulsant activity in albino CF1 mouse assessed as protection against subcutaneous metrazol-induced seizures at 100 mg/kg, ip measured after 0.25 hr; type: functional, organism-based; design: dose 100 mg/kg; conditions: not given

Structure (SMILES) | Activity
O=C1NC(=O)[C@@H](c2cccc(C(F)(F)F)c2)N2CCCC[C@H]12 | inactive

tested on: Rattus norvegicus; test: Neurotoxicity in MES Sprague-Dawley rat model at 30 mg/kg, po measured after 0.25 hr; type: toxicity, organism-based; design: dose 30 mg/kg, route oral; conditions: in vivo

Structure (SMILES) | Activity
O=C1NC(=O)[C@@H](c2cccc(C(F)(F)F)c2)N2CCCC[C@H]12 | Non-toxic

tested on: Mus musculus; test: Neurotoxicity in 32 mA current-induced seizure albino CF1 mouse model at 100 mg/kg, ip measured after 0.25 hr; type: toxicity, organism-based; design: dose 100 mg/kg, route intraperitoneal; conditions: in vivo

Structure (SMILES) | Activity
O=C1NC(=O)[C@@H](c2cccc(C(F)(F)F)c2)N2CCCC[C@H]12 | Non-toxic

tested on: Mus musculus; test: Neurotoxicity in 32 mA current-induced seizure albino CF1 mouse model at 100 mg/kg, ip measured after 2 hrs; type: toxicity, organism-based; design: dose 100 mg/kg, route intraperitoneal; conditions: in vivo

Structure (SMILES) | Activity
O=C1NC(=O)[C@@H](c2cccc(C(F)(F)F)c2)N2CCCC[C@H]12 | Non-toxic
